# Earlier results, collected in US7348294B2, “Adsorbent and method for adsorbing cardiac glycoside” (Kaneka Corporation, priority 2000, dated 2008).
# Details: octanol-water; ligand before immobilization
smiles,measurement,value
CCCCN [n-butylamine],log P,0.97
